Measurements published in publication PMC11156899, “High-throughput screening unveils nitazoxanide as a potent PRRSV inhibitor by targeting NMRAL1” (Nature Communications, 2024).

How the values were obtained:
[1] = system: PRRSV VR2332; assay: EC50 against VR-2332 strain on PAM cells; type: cell-based; details: Porcine reproductive and respiratory syndrome virus
From the text: Supplementary Fig. 3: Cytotoxicity and Antiviral Efficacy of NTZ.
PRRSV capsid protein positive
(primary antibody SR30, green) and nuclei (DAPI, blue).

[2] = system: PRRSV GSWW-18 strain; assay: PRRSV transmission to co-housed pigs; type: in vivo, pig; details: 25 mg/kg, from 0 dpi; two co-house animals uninfected
Procedure: Although the replication mechanism of PRRSV in blood is not fully understood, viremia is an undoubted marker of disease severity[22],[23]. […] On the second day post-infection, we administered NTZ at dosages of 10 mg/kg or 5 mg/kg and monitored the dynamics of PRRSV in the blood within 24 h (Fig. 4b). We observed that NTZ acted swiftly. […] Further experiments explored NTZ’s role in viral transmission (Fig. 4c).
Fig. 4 NTZ inhibition of PRRSV shedding and transmission. a Viral load in blood, and shedding in oronasal and anal swabs. Viral load or shedding in blood and oronasal swabs were quantified from 2 to 4 dpi, and in anal swabs from 2 to 5 dpi. Viral copy numbers for each pig during this period are presented. b NTZ suppression of PRRSV proliferation in blood. […] Parameters were calculated using a non-compartmental analysis (NCA). Eighteen pigs were evenly divided into three dosage groups (n = 6), each housed separately, fasted for 12 h before the experiment, and monitored by professional veterinarians for welfare and enclosure cleaning to prevent coprophagia. g Tissue distribution of NTZ’s main metabolite TIZ. Tissues were collected as per Method Pharmacokinetics and Tissue Distribution of NTZ, quantifying TIZ content at various times (n = 2). […]

[3] = target: NMRAL1 (Chlorocebus sabaeus, UniProt A0A0D9R9W0); assay: NMRAL1 dimerization (western blot, in cells and purified protein); type: biochemical; details: in cells and with purified NMRAL1 protein
From the text: In these proteins, we separately purified the proteins of NSP1α, NSP12, and NMRAL1. […] We speculate that NMRAL1 may be the primary target of NTZ action. […] Previous studies have shown NMRAL1 inhibits retinoic acid-inducible gene I (RIG-I) mediated antiviral responses. NTZ has been reported to activate the RIG-I pathway and induce an increase in IFN-β[25], which our findings corroborate (Fig. 6e–j). […] Differential Scanning Fluorimetry (DSF) confirmed NTZ binding to NMRAL1 (Fig. 6n). […] Molecular dynamics (MD) simulations were conducted for a more accurate understanding of TIZ’s role within the NMRAL1 dimer. Fluctuations or reductions in root-mean-square deviation (RMSD), Rg, and hydrogen bond count data after 80 ns indicated significant changes in the NMRAL1 system (Supplementary Fig. 12 a, b, d). […] TIZ primarily interacted with A chain’s LYS41, LYS42, LYS45, and B chain’s LYS92, LYS89, LYS95, GLN93, LEU96, LYS118, and ARG103, with B chain’s LYS92 and LYS89 and A chain’s LYS41 being the hotspots with binding energies greater than −1 kcal/mol (Supplementary Fig. 13). […]
For Western blot analysis, protein samples were heated at 95 °C for 8 min and then cooled to room temperature. […] The protein signals were detected using a chemiluminescent substrate (34577, Thermo) and visualized using the Gel Doc XR+ molecular imager (Bio-Rad).

Chain of NMRAL1 (A0A0D9R9W0 entry or part of it): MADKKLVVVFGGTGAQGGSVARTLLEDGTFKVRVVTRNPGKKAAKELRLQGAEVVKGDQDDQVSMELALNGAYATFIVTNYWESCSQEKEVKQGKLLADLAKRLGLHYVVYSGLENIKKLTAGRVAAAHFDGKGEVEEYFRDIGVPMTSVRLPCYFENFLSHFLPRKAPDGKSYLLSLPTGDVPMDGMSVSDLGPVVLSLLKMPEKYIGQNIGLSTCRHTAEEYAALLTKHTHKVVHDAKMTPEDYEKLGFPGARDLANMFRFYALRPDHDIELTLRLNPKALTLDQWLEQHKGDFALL

`CC(=O)Oc1ccccc1C(=O)Nc1ncc([N+](=O)[O-])s1` [Nitazoxanide] was tested, and the EC50 [1] was ~670 nM, the “PRRSV transmission to co-housed animals” value [2] was “can help limit PRRSV transmission” and the NMRAL1 dimer formation [3] was “increased NMRAL1 dimer formation”.
